Test in all cases: In vitro MIC, broth dilution
Type in all cases: cell-based
In general terms: Broth dilution looks for growth in wells or tubes with falling amounts of substance.

Test [1] deals with E. coli GC 2203. The note with it: Escherichia coli, GC2203; E. coli GC 2203; read-out: MIC.
Test [2] relates to P. aeruginosa GC 4532. The note with it: Pseudomonas aeruginosa, GC4532; P. aeruginosa GC 4532; read-out: MIC.
For test [3], the system named is M. morganii GC 4531. Particulars: Morganella morganii, GC4531; M. morganii GC 4531; read-out: MIC.
The test system of test [4] is E. coli GC 4559. The note with it: Escherichia coli, GC4559; E. coli GC 4559; read-out: MIC.
Test [5] concerns K. pneumoniae GC 4534. The note with it: Klebsiella pneumoniae, GC4534; K. pneumoniae GC 4534; read-out: MIC.
For test [6], the system named is E. cloacae GC 3783. The note with it: Enterobacter cloacae, GC3783; E. cloacae GC 3783; read-out: MIC.
For test [7], the system named is C. albicans GC 3066. The note with it: Candida albicans, GC3066; C. albicans GC 3066; read-out: MIC.
Test [8] has as its system S. aureus GC 1131. The note with it: Staphylococcus aureus, GC1131; S. aureus GC 1131; read-out: MIC. The procedure, abridged:
(§1)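 Microdilution in Mueller-Hinton II per NCCLS: drug 64-0.06 μg/ml, bacteria 5×10^5 CFU/ml. Incubation 18 hours, 35° C, ambient air; MIC defined as lowest concentration inhibiting growth.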

The subject of test [9] is E. faecalis GC 842. The note with it: Enterococcus faecalis, GC842; E. faecalis GC 842; read-out: MIC. The gist of the method: as §1
The test system of test [10] is CNS GC 4547. Particulars: CNS GC 4547; read-out: MIC. The gist of the method: as §1
In test [11] the test system is E. faecalis GC 2242. The note with it: Enterococcus faecalis, GC2242; E. faecalis GC 2242; read-out: MIC. The gist of the method: as §1
Test [12] deals with CNS GC 4537. Particulars: CNS GC 4537; read-out: MIC. The procedure, abridged:
as §1

Test [13] has as its system E. faecalis GC 4555. The note with it: Enterococcus faecalis, GC4555; E. faecalis GC 4555; read-out: MIC. The gist of the method:
as §1

Test [14] concerns CNS GC 4538. The note with it: CNS GC 4538; read-out: MIC. The gist of the method:
as §1

Test [15] has as its system S. aureus GC 2216. The note with it: Staphylococcus aureus, GC2216; S. aureus GC 2216; read-out: MIC. The procedure, abridged:
as §1

Test [16] deals with S. aureus GC 4536. The note with it: Staphylococcus aureus, GC4536; S. aureus GC 4536; read-out: MIC. The procedure, abridged: as §1
Test [17] deals with P. aeruginosa GC 2214. Particulars: Pseudomonas aeruginosa, GC2214; P. aeruginosa GC 2214; read-out: MIC.
The test system of test [18] is E. coli GC 4560. Particulars: Escherichia coli, GC4560; E. coli GC 4560; read-out: MIC.
In test [19] the test system is S. marcescens GC 4077. Particulars: Serratia marcescens, GC4077; S. marcescens GC 4077; read-out: MIC.
Test [20] deals with E. coli GC 3226. The note with it: Escherichia coli, GC3226; E. coli GC 3226; read-out: MIC.

Values after ≈ are worked out from the molar mass of the structure shown.

From patent US6858591B2, “Antibiotic AA 896 analogs” (Wyeth Holdings Corporation, priority 2001, dated 2005) come the findings set out here.

By MIC is commonly meant the smallest concentration in the dilution series that meets the test's criterion for growth inhibition. With `COc1ccc(Cn2c(=O)ccn([C@@H]3OC([C@H](O)[C@H](NCCCNC(=O)[C@H](N)CC(C)C)C(=O)OC(C)(C)C)[C@@H](O[Si](C)(C)C(C)(C)C)[C@H]3O[Si](C)(C)C(C)(C)C)c2=O)cc1` (some centres unmarked) [Example 57], the MIC is greater than 128 µg/mL in test [1]; 128 µg/mL (≈ 143 µM) in [2]; 128 µg/mL (≈ 143 µM) in test [3]; greater than 128 µg/mL in test [4]; greater than 128 µg/mL in [5]; 128 µg/mL (≈ 143 µM) in test [6]. Besides, the MIC in test [7] amounted to 128 µg/mL (≈ 143 µM); in test [8] it was 64 µg/mL (≈ 71.7 µM); in test [9], 8 µg/mL (≈ 8.97 µM); in [10] it was 64 µg/mL (≈ 71.7 µM); in test [11], 4 µg/mL (≈ 4.48 µM); in test [12], 4 µg/mL (≈ 4.48 µM). The minimal inhibitory concentration (MIC) in test [13] is 4 µg/mL (≈ 4.48 µM); in test [14] it was 4 µg/mL (≈ 4.48 µM); in test [15] it was 32 µg/mL (≈ 35.9 µM); in [16], 8 µg/mL (≈ 8.97 µM); in test [17], 128 µg/mL (≈ 143 µM); in test [18], 128 µg/mL (≈ 143 µM). Besides, the results for the MIC in test [19] and in test [20] were 128 µg/mL (≈ 143 µM) and greater than 128 µg/mL, respectively.
